PMC4941945 (Current protocols in pharmacology / editorial board, S.J. …, 2015)
Where two headings read alike, the source gives them in different places.

Legend:
sigma-1 receptor (S1R) = settings: read-out: KI S1R, cited from earlier work
sigma-2 receptor (S2R) = settings: read-out: KI S2R, cited from earlier work
S1R knockout mice = settings: ref Fontanilla et al., 2009; cited from earlier work
S1R + S2R = test: Saturation binding of [3H]-DTG in rat liver; settings: RL membranes
[1] = ref 2 Fontanilla D et al. (2009) Science 323(5916): 934-937
[2] = ref 1 Matsumoto RR et al. (1995) EJP 280: 301-310
[3] = ref 8 Husbands SM et al (1997) J Med Chem 40:4340-4346

For `CN(C)CCc1c[nH]c2ccccc12` [Dimethyltryptamine, N,N-dimethyltryptamine], the Ki (sigma-1 receptor (S1R); [1]) is listed as 14700 nM, the Ki (sigma-2 receptor (S2R); [1]) is listed as 21700 nM and the “response in a behavioral assay measuring motor coordination” value (S1R knockout mice) is listed as “failed to respond”.
For `O=C(OCCN1CCOCC1)C1(c2ccccc2)CCCCC1` [PRE-084], the Ki (sigma-2 receptor (S2R); ref 6 Maurice T. et al. (1999) Br J Pharmacol 127(2): 335-342) is given as 13100 nM.
In the case of `CN1CCN(CCc2ccc(Cl)c(Cl)c2)CC1` [BD1063], the Ki (sigma-1 receptor (S1R); [2]) is given as 9.2 nM and the Ki (sigma-2 receptor (S2R); [2]) is given as 449 nM.
With `Cc1ccccc1NC(=N)Nc1ccccc1C` [[^3H]-DTG, [^3H]-1,3-di(2-tolyl)guanidine] the “S1R + S2R Binding, Specific Binding” value (S1R + S2R; measured [3H]-DTG concentration 0.25 nM) was 0.44 pmol/mg, the “S1R + S2R Binding, Specific Binding” value (S1R + S2R; measured [3H]-DTG concentration 0.8 nM) was 0.94 pmol/mg and the “S1R + S2R Binding, Specific Binding” value (S1R + S2R; measured [3H]-DTG concentration 2.7 nM) was 2.21 pmol/mg. The “S1R + S2R Binding, Specific Binding” value (S1R + S2R; measured [3H]-DTG concentration 9 nM) was 6.52 pmol/mg, the “S1R + S2R Binding, Specific Binding” value (S1R + S2R; measured [3H]-DTG concentration 27 nM) was 11.36 pmol/mg and the “S1R + S2R Binding, Specific Binding” value (S1R + S2R; measured [3H]-DTG concentration 92 nM) was 18.55 pmol/mg. For the same compound, the “S1R + S2R Binding, Specific Binding” value (S1R + S2R; measured [3H]-DTG concentration 310 nM) was 20.14 pmol/mg.
For `C[C@@H]1CN(CCCn2c3ccccc3c3ccccc32)C[C@H](C)N1` [Rimcazole], the Ki (sigma-1 receptor (S1R); [3]) is given as […] and the Ki (sigma-2 receptor (S2R); [3]) is given as 386 nM.
For `CN(C)CCN(C)CCc1ccc(Cl)c(Cl)c1` [BD1047], the Ki (sigma-1 receptor (S1R); [2]) is given as 0.93 nM and the Ki (sigma-2 receptor (S2R); [2]) is given as 47 nM.
